From paper PMC6038798, “Dissecting how modular polyketide synthase ketoreductases interact with acyl carrier protein-attached substrates” (Chemical Communications (Cambridge, England), 2017)

How the values were obtained:
[1] = target: T1, mKRa (Mycobacterium ulcerans, UniProt Q6MZA4); assay: isothermal titration calorimetry; format: binding
T1 construct: gene mlsA1; excised A1-type ketoreductase domain of module 5 of MLSA1; recombinant, purified
Source text: isothermal titration calorimetry on mKRa

[2] = target: T2, mKRb (Mycobacterium ulcerans, UniProt Q6MZ72); assay: isothermal titration calorimetry; format: binding
T2 construct: gene mlsB; excised B1-type ketoreductase domain of module 7 of MLSB; recombinant, purified
Source text: isothermal titration calorimetry on mKRb

[3] = target: mKRb, B1-type ketoreductase (KR) domain from module 7 of MLSB of the mycolactone polyketide synthase (Mycobacterium ulcerans); assay: ITC; ACP species titrated against the KR domain in the presence of excess NADP+ (oxidised cofactor); three repeat experiments
[4] = target: mKRb, B1-type ketoreductase (KR) domain from module 7 of MLSB of the mycolactone polyketide synthase (Mycobacterium ulcerans); assay: ITC; ACP species injected into a solution of the KR domain in the presence of excess NADPH; three repeat experiments

Row | Compound | Kd [1] [µM] | Kd [2] [µM] | Kd [3] [µM] | Kd [4] [µM] | stoichiometry N [4]
1 | CC(C)(CO)[C@@H](O)C(=O)NCCC(=O)O [compound 3, Pantothenate] | 0.7 ± 0.13 | 0.7 ± 0.1 | – | – | –
2 | holo mACPb (1a) (domain or fragment) | – | – | 0.75 | 0.61 | 1
3 | NCCS [compound 5, Cysteamine] | > 1000 | > 1000 | – | – | –
4 | holo mACPa (1a) (domain or fragment) | – | – | – | 0.63 | –
5 | NCCC(=O)O [compound 6, β-Alanine] | 0.97 ± 0.04 | 0.5 ± 0.09 | – | – | –
6 | apo mACPb, acyl carrier protein domain cognate to mKRb (module 7 of MLSB), apo form (domain or fragment) | – | – | 2.2 | 2.6 | –
7 | CC(C)(CO)[C@@H](O)C(=O)O [compound 4, Pantoate] | > 1000 | 0.6 ± 0.1 | – | – | –
8 | CC(C)(CO)[C@@H](O)C(=O)NCCC(=O)NCCS [compound 2, R-Pantetheine] | 1.1 ± 0.04 | 1.2 ± 0.3 | – | – | –
9 | CC(=O)NCCS [compound 7, N-Acetyl cysteamine] | 1.03 ± 0.02 | 1.4 ± 0.3 | – | – | –
10 | apo mACPa, acyl carrier protein domain cognate to mKRa (module 5 of MLSA1), apo form (domain or fragment) | – | – | – | 2.2 | –
11 | β-Hydroxybutyryl-mACPb (1c) (domain or fragment) | – | – | – | 0.27 | –
12 | Acetoacetyl-mACPb (1b) (domain or fragment) | – | – | 0.38 | – | –
